# Laboratory results reported in patent publication EP0908457B1, “3-(1,2-benzisothiazol- and isoxazol-5-Y1)-2,4(1H,3H)-pyrimidinedione or thione and 3-(1,2-benzisothiazol- and isoxazol-5-y1)-4(3H)-pyrimidinone or thione herbicidal agents” (BASF AKTIENGESELLSCHAFT, priority 1997, dated 1999).
# Columns and labels:
# [1] = test system: Cyperus serotinus, Rottb.; experiment: Preemergence weed control under flooded paddy conditions, CYPSE (Flatsedge); type: in vivo; conditions: preemergence; further: meaning of each grade not given here
# [2] = test system: Oryza sativa, (L.) Tebonnet; experiment: Rice tolerance to post-transplant applications under flooded paddy conditions (Example 187), ORYSAT (Rice, Tebonnet); on herbicidal effect rating ORYSAT: meaning of each grade not given here
# [3] = test system: Monochoria vaginalis, Presl.; experiment: Preemergence weed control under flooded paddy conditions, MOOVA (Monochoria); type: in vivo; conditions: preemergence, flooded paddy; further: meaning of each grade not given here
# [4] = test system: Echinochloa oryzoides (Ard.) Fritsch.; experiment: Preemergence weed control under flooded paddy conditions, ECHORC (Watergrass (Calif.)); type: in vivo; conditions: preemergence, flooded paddy; further: meaning of each grade not given here
# Sagittaria pygmaea, L. = experiment: Preemergence weed control under flooded paddy conditions, SAGPY (Arrowhead (Pygmaea)); type: in vivo; conditions: preemergence, flooded paddy; further: meaning of each grade not given here
# Cyperus iria = experiment: Preemergence weed control under flooded paddy conditions, CYPIR (Rice Flatsedge); type: in vivo; conditions: preemergence, flooded paddy; further: meaning of each grade not given here
# [5] = Rate 0.0620 kg/ha, rated 3-4 weeks after treatment
# [6] = Rate 0.1250 kg/ha, rated 3-4 weeks after treatment
# [7] = Rate 0.2500 kg/ha, rated 3-4 weeks after treatment
# [8] = Rate 0.5000 kg/ha, rated 3-4 weeks after treatment
# [9] = 0.0313 kg/ha, rated three to four weeks after treatment
# [10] = 0.0625 kg/ha, rated three to four weeks after treatment
# [11] = 0.1250 kg/ha, rated three to four weeks after treatment
# [12] = 0.2500 kg/ha, rated three to four weeks after treatment
# [13] = Rate 0.0320 kg/ha, rated three to four weeks after treatment
# [14] = Rate 0.0620 kg/ha, rated three to four weeks after treatment
# [15] = Rate 0.1250 kg/ha, rated three to four weeks after treatment
# [16] = Rate 0.2500 kg/ha, rated three to four weeks after treatment
smiles,measurement,setting,value
"CCOC(=O)c1ccc(NC(=O)C(C)Oc2ccc(C)cc2-c2nsc3ccc(-n4c(=O)cc(C(F)(F)F)n(C)c4=O)cc23)cc1 (centres unmarked) [Example 541, Benzoic acid, p-{2-{{2-{5-[3,6-dihydro-3-methyl-2,6-dioxo-4-(trifluoromethyl)-1(2H)-pyrimidinyl]-1,2-benzisothiazol-3-yl}-p-tolyl}oxy}propionamido}-, ethyl ester]","herbicidal effect rating, CYPSE",[1]; [5],0.0
same,"herbicidal effect rating, CYPSE",[1]; [6],0.0
same,"herbicidal effect rating, CYPSE",[1]; [7],0.0
same,"herbicidal effect rating, CYPSE",[1]; [8],0.0
same,herbicidal effect rating ORYSAT,[2]; [5],0.0
same,herbicidal effect rating ORYSAT,[2]; [6],0.0
same,herbicidal effect rating ORYSAT,[2]; [7],0.0
same,herbicidal effect rating ORYSAT,[2]; [8],2.0
same,"herbicidal effect rating, MOOVA",[3]; [5],9.0
same,"herbicidal effect rating, MOOVA",[3]; [6],9.0
same,"herbicidal effect rating, MOOVA",[3]; [7],9.0
same,"herbicidal effect rating, MOOVA",[3]; [8],9.0
same,"herbicidal effect rating, ECHORC",[4]; [5],0.0
same,"herbicidal effect rating, ECHORC",[4]; [6],0.0
same,"herbicidal effect rating, ECHORC",[4]; [7],4.0
same,"herbicidal effect rating, ECHORC",[4]; [8],6.0
same,"herbicidal effect rating, SAGPY","Sagittaria pygmaea, L.; [5]",0.0
same,"herbicidal effect rating, SAGPY","Sagittaria pygmaea, L.; [6]",0.0
same,"herbicidal effect rating, SAGPY","Sagittaria pygmaea, L.; [7]",0.0
same,"herbicidal effect rating, SAGPY","Sagittaria pygmaea, L.; [8]",0.0
same,"herbicidal effect rating, CYPIR",Cyperus iria; [5],3.0
same,"herbicidal effect rating, CYPIR",Cyperus iria; [6],4.0
same,"herbicidal effect rating, CYPIR",Cyperus iria; [7],6.0
same,"herbicidal effect rating, CYPIR",Cyperus iria; [8],9.0
"C=CCOC(=O)COc1ccc(C)cc1-c1nsc2ccc(-n3c(=O)cc(C(F)(F)F)n(C)c3=O)cc12 [Example 69, Allyl {{2-{5-[3,6-dihydro-3-methyl-2,6-dioxo-4-(trifluoromethyl)-1(2H)-pyrimidinyl]-1,2-benzisothiazol-3-yl}-p-tolyl}oxy}acetate]","herbicidal effect rating, CYPSE",[1]; [9],0.0
same,"herbicidal effect rating, CYPSE",[1]; [10],0.0
same,"herbicidal effect rating, CYPSE",[1]; [11],2.0
same,"herbicidal effect rating, CYPSE",[1]; [12],9.0
same,"herbicidal effect rating, ORYSAT (rice tolerance)",[2]; [9],3.5
same,"herbicidal effect rating, ORYSAT (rice tolerance)",[2]; [10],5.0
same,"herbicidal effect rating, ORYSAT (rice tolerance)",[2]; [11],6.5
same,"herbicidal effect rating, ORYSAT (rice tolerance)",[2]; [12],8.0
same,"herbicidal effect rating, MOOVA",[3]; [9],9.0
same,"herbicidal effect rating, MOOVA",[3]; [10],9.0
same,"herbicidal effect rating, MOOVA",[3]; [11],9.0
same,"herbicidal effect rating, MOOVA",[3]; [12],9.0
same,"herbicidal effect rating, ECHORC",[4]; [9],9.0
same,"herbicidal effect rating, ECHORC",[4]; [10],9.0
same,"herbicidal effect rating, ECHORC",[4]; [11],9.0
same,"herbicidal effect rating, ECHORC",[4]; [12],9.0
same,"herbicidal effect rating, SAGPY","Sagittaria pygmaea, L.; [9]",0.0
same,"herbicidal effect rating, SAGPY","Sagittaria pygmaea, L.; [10]",0.0
same,"herbicidal effect rating, SAGPY","Sagittaria pygmaea, L.; [11]",2.0
same,"herbicidal effect rating, SAGPY","Sagittaria pygmaea, L.; [12]",9.0
same,"herbicidal effect rating, CYPIR",Cyperus iria; [9],0.0
same,"herbicidal effect rating, CYPIR",Cyperus iria; [10],2.0
same,"herbicidal effect rating, CYPIR",Cyperus iria; [11],4.0
same,"herbicidal effect rating, CYPIR",Cyperus iria; [12],7.0
"CCOC(=O)C(F)(F)Oc1ccc(C)cc1-c1nsc2ccc(-n3c(=O)cc(C(F)(F)F)n(C)c3=O)cc12 [Example 559, Acetic acid, {{2-{5-[3,6-dihydro-3-methyl-2,6-dioxo-4-(trifluoromethyl)-1(2H)-pyrimidinyl]-1,2-benzisothiazol-3-yl}-p-tolyl}oxy}difluoro-, ethyl ester]","herbicidal effect rating, CYPSE",[1]; [5],0.0
same,"herbicidal effect rating, CYPSE",[1]; [6],0.0
same,"herbicidal effect rating, CYPSE",[1]; [7],9.0
same,"herbicidal effect rating, CYPSE",[1]; [8],9.0
same,herbicidal effect rating ORYSAT,[2]; [5],1.0
same,herbicidal effect rating ORYSAT,[2]; [6],1.0
same,herbicidal effect rating ORYSAT,[2]; [7],2.0
same,herbicidal effect rating ORYSAT,[2]; [8],2.0
same,"herbicidal effect rating, MOOVA",[3]; [5],9.0
same,"herbicidal effect rating, MOOVA",[3]; [6],9.0
same,"herbicidal effect rating, MOOVA",[3]; [7],9.0
same,"herbicidal effect rating, MOOVA",[3]; [8],9.0
same,"herbicidal effect rating, ECHORC",[4]; [5],3.0
same,"herbicidal effect rating, ECHORC",[4]; [6],3.0
same,"herbicidal effect rating, ECHORC",[4]; [7],6.0
same,"herbicidal effect rating, ECHORC",[4]; [8],9.0
same,"herbicidal effect rating, SAGPY","Sagittaria pygmaea, L.; [5]",0.0
same,"herbicidal effect rating, SAGPY","Sagittaria pygmaea, L.; [6]",0.0
same,"herbicidal effect rating, SAGPY","Sagittaria pygmaea, L.; [7]",0.0
same,"herbicidal effect rating, SAGPY","Sagittaria pygmaea, L.; [8]",0.0
same,"herbicidal effect rating, CYPIR",Cyperus iria; [5],0.0
same,"herbicidal effect rating, CYPIR",Cyperus iria; [6],0.0
same,"herbicidal effect rating, CYPIR",Cyperus iria; [7],0.0
same,"herbicidal effect rating, CYPIR",Cyperus iria; [8],4.0
"C=C(Cl)COC(=O)c1nsc2ccc(-n3c(=O)cc(C(F)(F)F)n(C)c3=O)cc12 [Example 386, 1,2-Benzisothiazole-3-carboxylic acid, 5-[3,6-dihydro-3-methyl-2,6-dioxo-4-(trifluoromethyl)-1(2H)-pyrimidinyl]-, 2-chloroallyl ester]","herbicidal effect rating, CYPSE",[1]; [13],3.0
same,"herbicidal effect rating, CYPSE",[1]; [14],7.0
same,"herbicidal effect rating, CYPSE",[1]; [15],7.0
same,"herbicidal effect rating, CYPSE",[1]; [16],7.0
same,herbicidal effect rating ORYSAT,[2]; [13],5.0
same,herbicidal effect rating ORYSAT,[2]; [14],5.0
same,herbicidal effect rating ORYSAT,[2]; [15],5.0
same,herbicidal effect rating ORYSAT,[2]; [16],5.0
same,"herbicidal effect rating, MOOVA",[3]; [13],9.0
same,"herbicidal effect rating, MOOVA",[3]; [14],9.0
same,"herbicidal effect rating, MOOVA",[3]; [15],9.0
same,"herbicidal effect rating, MOOVA",[3]; [16],9.0
same,"herbicidal effect rating, ECHORC",[4]; [13],0.0
same,"herbicidal effect rating, ECHORC",[4]; [14],3.0
same,"herbicidal effect rating, ECHORC",[4]; [15],4.0
same,"herbicidal effect rating, ECHORC",[4]; [16],5.0
same,"herbicidal effect rating, SAGPY","Sagittaria pygmaea, L.; [13]",4.0
same,"herbicidal effect rating, SAGPY","Sagittaria pygmaea, L.; [14]",7.0
same,"herbicidal effect rating, SAGPY","Sagittaria pygmaea, L.; [15]",9.0
same,"herbicidal effect rating, SAGPY","Sagittaria pygmaea, L.; [16]",9.0
same,"herbicidal effect rating, CYPIR",Cyperus iria; [13],7.0
same,"herbicidal effect rating, CYPIR",Cyperus iria; [14],9.0
same,"herbicidal effect rating, CYPIR",Cyperus iria; [15],9.0
same,"herbicidal effect rating, CYPIR",Cyperus iria; [16],9.0
"COCCOCCOC(=O)c1nsc2ccc(-n3c(=O)cc(C(F)(F)F)n(C)c3=O)cc12 [Example 389, 1,2-Benzisothiazole-3-carboxylic acid, 5-[3,6-dihydro-3-methyl-2,6-dioxo-4-(trifluoromethyl)-1(2H)-pyrimidinyl]-, 2-(2-methoxyethoxy)ethyl ester]","herbicidal effect rating, CYPSE",[1]; [13],0.0
same,"herbicidal effect rating, CYPSE",[1]; [15],7.0
same,"herbicidal effect rating, CYPSE",[1]; [16],8.0
same,herbicidal effect rating ORYSAT,[2]; [13],3.0
same,herbicidal effect rating ORYSAT,[2]; [14],4.0
same,herbicidal effect rating ORYSAT,[2]; [15],4.0
same,herbicidal effect rating ORYSAT,[2]; [16],5.0
same,"herbicidal effect rating, MOOVA",[3]; [13],7.0
same,"herbicidal effect rating, MOOVA",[3]; [14],9.0
same,"herbicidal effect rating, MOOVA",[3]; [15],9.0
same,"herbicidal effect rating, MOOVA",[3]; [16],9.0
same,"herbicidal effect rating, ECHORC",[4]; [13],3.0
same,"herbicidal effect rating, ECHORC",[4]; [14],4.0
same,"herbicidal effect rating, ECHORC",[4]; [15],4.0
same,"herbicidal effect rating, ECHORC",[4]; [16],7.0
same,"herbicidal effect rating, SAGPY","Sagittaria pygmaea, L.; [13]",3.0
same,"herbicidal effect rating, SAGPY","Sagittaria pygmaea, L.; [14]",4.0
same,"herbicidal effect rating, SAGPY","Sagittaria pygmaea, L.; [15]",7.0
same,"herbicidal effect rating, SAGPY","Sagittaria pygmaea, L.; [16]",9.0
same,"herbicidal effect rating, CYPIR",Cyperus iria; [13],5.0
same,"herbicidal effect rating, CYPIR",Cyperus iria; [14],5.0
same,"herbicidal effect rating, CYPIR",Cyperus iria; [15],7.0
same,"herbicidal effect rating, CYPIR",Cyperus iria; [16],9.0
"CC(c1nsc2ccc(-n3c(=O)cc(C(F)(F)F)n(C)c3=O)cc12)S(C)(=O)=O (centres unmarked) [Example 590, 2,4(1H,3H)-Pyrimidinedione, 1-methyl-3-{3-[1-(methylsulfonyl)ethyl}-1,2-benzisothiazol-5-yl}-6-(trifluoromethyl)-]","herbicidal effect rating, CYPSE",[1]; [13],0.0
same,"herbicidal effect rating, CYPSE",[1]; [16],5.0
same,herbicidal effect rating ORYSAT,[2]; [13],3.0
same,herbicidal effect rating ORYSAT,[2]; [14],5.0
same,herbicidal effect rating ORYSAT,[2]; [15],5.0
same,herbicidal effect rating ORYSAT,[2]; [16],6.0
same,"herbicidal effect rating, MOOVA",[3]; [14],7.0
same,"herbicidal effect rating, MOOVA",[3]; [15],7.0
same,"herbicidal effect rating, MOOVA",[3]; [16],9.0
same,"herbicidal effect rating, ECHORC",[4]; [13],3.0
same,"herbicidal effect rating, ECHORC",[4]; [14],5.0
same,"herbicidal effect rating, ECHORC",[4]; [15],6.0
same,"herbicidal effect rating, ECHORC",[4]; [16],9.0
same,"herbicidal effect rating, SAGPY","Sagittaria pygmaea, L.; [13]",3.0
same,"herbicidal effect rating, SAGPY","Sagittaria pygmaea, L.; [14]",4.0
same,"herbicidal effect rating, SAGPY","Sagittaria pygmaea, L.; [15]",8.0
same,"herbicidal effect rating, SAGPY","Sagittaria pygmaea, L.; [16]",9.0
same,"herbicidal effect rating, CYPIR",Cyperus iria; [13],2.0
same,"herbicidal effect rating, CYPIR",Cyperus iria; [14],7.0
same,"herbicidal effect rating, CYPIR",Cyperus iria; [15],7.0
same,"herbicidal effect rating, CYPIR",Cyperus iria; [16],9.0
